Counter-ions that a name gives are not always drawn.

For the experiment, the target named is T1, full length SGK1 (Homo sapiens, UniProt O00141).
T1 construct: 125 μM full length SGK1 (Life Technologies Part #PR7358A); purchased Life Technologies PR7358A
T1 sequence (O00141 1-431): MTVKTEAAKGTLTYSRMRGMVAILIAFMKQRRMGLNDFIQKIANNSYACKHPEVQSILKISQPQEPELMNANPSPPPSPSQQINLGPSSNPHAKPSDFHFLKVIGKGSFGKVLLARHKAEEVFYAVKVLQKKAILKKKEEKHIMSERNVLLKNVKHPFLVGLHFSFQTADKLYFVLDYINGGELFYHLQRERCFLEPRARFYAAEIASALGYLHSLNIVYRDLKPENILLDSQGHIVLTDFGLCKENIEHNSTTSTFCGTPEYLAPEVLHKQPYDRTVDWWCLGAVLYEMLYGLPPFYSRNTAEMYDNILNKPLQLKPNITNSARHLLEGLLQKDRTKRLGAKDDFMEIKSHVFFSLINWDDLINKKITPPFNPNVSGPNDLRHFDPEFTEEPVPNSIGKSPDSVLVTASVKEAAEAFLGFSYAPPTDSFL
Briefly: SGK1 inhibition Assay A (Caliper LabChip electrophoretic separation of fluorescent peptide substrate and phosphorylated product). The conditions noted are these: Assay A; 20 μM ATP, 40 min incubation; read-out: SGK1 IC50. The experiment is classed as biochemical.
By IC50 is commonly meant the point on the concentration scale where inhibition reaches its midpoint. Consider `Cc1cc(-c2cc(N3CCC[C@@H](NC(=O)c4sc(Cl)cc4OCCN(C)C)C3)c3c(N)ncnn23)cc(C(F)F)n1` [Example 277, (R)-N-(1-(4-amino-7-(2-(difluoromethyl)-6-methylpyridin-4-yl)pyrrolo[2,1-f][1,2,4]triazin-5-yl)piperidin-3-yl)-5-chloro-3-(2-(dimethylamino)ethoxy) thiophene-2-carboxamide], for which the concentration for half-maximal inhibition (IC50) came to 10 nM. Then `NC(=O)c1ccc(-c2cc(N3CCC[C@@H](NC(=O)c4sc(Cl)cc4OC4CN(CC(F)F)C4)C3)c3c(N)ncnn23)cc1F` [Example 386, (R)-N-(1-(4-amino-7-(4-carbamoyl-3-fluorophenyl)pyrrolo[2,1-f][1,2,4]triazin-5-yl)piperidin-3-vl)-5-chloro-3-((1-(2,2-difluoroethyl)azetidin-3-yl)oxy)thiophene-2-carboxamide], with 6 nM; and `Nc1ncnn2c(C3=CCN(C(=O)C4CCCCO4)C3)cc(N3CCC[C@@H](NC(=O)c4ccc(Cl)s4)C3)c12` (stereo partly drawn) [Example 897, N-((3R)-1-(4-amino-7-(1-(tetrahydro-2H-pyran-2-carbony1)-2,5-dihydro-1H-pyrrol-3-y1)pyrrolo[2,1-f][1,2,4]triazin-5-yl)piperidin-3-y1)-5-chlorothiophene-2-carboxamide], with 8 nM. Then `CC(=O)N1CC=C(c2cc(N3CCC[C@@H](NC(=O)c4sc(Cl)cc4OC4CC(N(C)C)C4)C3)c3c(N)ncnn23)C1` (stereo partly drawn) [Example 598, (R)-N-(1-(7-(1-acetyl-2,5-dihydro-1H-pyrrol-3-yl)-4-aminopyrrolo[2,1-f][1,2,4]triazin-5-y1)piperidin-3-y1)-5-chloro-3-(3-(dimethylamino)cyclobutoxy)thiophenc-2-carboxamide], with 6 nM; and `CS(=O)(=O)c1ccc(-c2cc(N3CCC[C@@H](NC(=O)c4cnco4)C3)c3c(N)ncnn23)cc1` [Example 61, (R)-N-(1-(4-amino-7-(4-(methylsulfonyl)phenyl)pyrrolo[2,1-f][1,2,4]triazin-5-yl)piperidin-3-yl)oxazole-5-carboxamide], with 33 nM; and `CC(=O)N1CC=C(c2cc(N3CCC[C@@H](NC(=O)c4cccc(NC5CC(=O)N(C)C5)n4)C3)c3c(N)ncnn23)C1` (stereo partly drawn) [Example 768, N-((R)-1-(7-(1-acetyl-2,5-dihydro-1H-pyrrol-3-yl)-4-aminopyrrolo[2,1-f][1,2,4]triazin-5-yl)piperidin-3-yl)-6-((1-methyl-5-oxopyrrolidin-3-yl)amino)picolinamide], with 46 nM. Then `CS(=O)(=O)c1ccc(-c2cc(N3CCCC(NC(=O)c4ccc(Cl)cc4)C3)c3c(N)ncnn23)cc1` (stereo not drawn) [Example 5, N-(1-(4-amino-7-(4-(methylsulfonyl)phenyl)pyrrolo[2,1-f][1,2,4]triazin-5-yl)piperidin-3-yl)-4-chlorobenzamide, TFA], with 73 nM; and “(R)-2-(1-(7-(1-acetyl-2,5- dihydro-1H-pyrrol-3-yl)- 4-aminopyrrolo[2,1- f][1,2,4]triazin-5- yl)piperidin-3-yl)-1,1,3,3- tetramethylguanidine [Example 724]”, with 15 nM. Turning to `CC(C)(C)OC(=O)N[C@@H]1CCCCN(c2cc(-c3ccc(S(C)(=O)=O)cc3)n3ncnc(N)c23)C1` [Example 120, tert-butyl (R)-(1-(4-amino-7-(4-(methylsulfonyl)phenyl)pyrrolo[2,1-f][1,2,4]triazin-5-yl)azepan-3-yl)carbamate], the IC50 is 3400 nM. The value for `CN(C)CCOc1cc(Cl)sc1C(=O)N[C@@H]1CCCN(c2cc(-c3ccc(-n4cncn4)nc3)n3ncnc(N)c23)C1` [Example 190, (R)-N-(1-(7-(6-(1H-1,2,4-triazol-1-yl)pyridin-3-yl)-4-aminopyrrolo[2,1-f][1,2,4]triazin-5-yl)piperidin-3-yl)-5-chloro-3-(2-(dimethylamino)ethoxy) thiopbene-2-carboxamide] was 19 nM; that for `Nc1ncnn2c(-c3ccnc(F)c3)cc(N3CCC[C@@H](NC(=O)c4ccc(C(F)F)s4)C3)c12` [Example 152, (R)-N-(1-(4-amino-7-(2-fluoropyridin-4-yl)pyrrolo[2,1-f][1,2,4]triazin-5-yl)piperidin-3-yl)-5-(difluoromethyl)thiophene-2-carboxamide, TFA] was 5 nM. The value for `COC(=O)N1CC=C(c2cc(N3CCC[C@@H](NC(=O)c4sc(Cl)cc4O[C@@H]4C[C@H]5CC[C@@H](C4)N5C)C3)c3c(N)ncnn23)C1` [Example 613, methyl 3-(4-amino-5-((R)-3-(5-chloro-3-(((1R,3s,5S)-8-methyl-8-azabicyclo[3.2.1]octan-3-yl)oxy)thiophene-2-carboxamido)piperidin-1-yl)pyrrolo[2,1-f][1,2,4]triazin-7-yl)-2,5-dihydro-1H-pyrrole-1-carboxylate] was 3 nM; that for `Cc1cc(-c2cc(N3CCC[C@@H](NC(=O)c4sc(Cl)cc4OCCN(C)C)C3)c3c(N)ncnn23)cn(C)c1=O` [Example 691, (R)—N-(1-(4-amino-7-(1,5-dimethyl-6-oxo-1,6-dihydropyridin-3-yl)pyrrolo[2,1-f][1,2,4]triazin-5-yl)piperidin-3-yl)-5-chloro-3-(2-(dimethylamino)ethoxy)thiophene-2-carboxamide] was 115 nM; that for `Cc1cnc(F)cc1-c1cc(N2CCC[C@@H](NC(=O)c3ccc(Cl)s3)C2)c2c(N)ncnn12` [Example 233] was 33 nM. Then `Nc1ncnn2c(C3=CCN(C(=O)C4CCCS(=O)(=O)C4)C3)cc(N3CCC[C@@H](NC(=O)c4ccc(Cl)s4)C3)c12` (stereo partly drawn) [Example 904, N-((3R)-1-(4-amino-7-(1-(1,1-dioxidotetrahydro-2H-thiopyran-3-carbonyl)-2,5-dihydro-1H-pyrrol-3-yl)pyrrolo[2,1-f][1,2,4]triazin-5-y1)piperidin-3-y1)-5-chlorothiophene-2-carboxamide], with 12 nM; and `COC(=O)N1CC=C(c2cc(N3CCC[C@@H](NC(=O)c4sc(Cl)cc4OC4CCN(C(C)C)CC4)C3)c3c(N)ncnn23)C1` [Example 563, methyl (R)-3-(4-amino-5-(3-(5-chloro-3-((1-isopropylpiperidin-4-yl)oxy)thiophene-2-carboxamido)piperidin-1-yl)pyrrolo[2,1-f][1,2,4]triazin-7-yl)-2,5-dihydro-1H-pyrrole-1-carboxylate], with 3 nM. As for `Cc1cc(-c2cc(N3CCC[C@@H](NC(=O)c4sc(C(F)F)cc4OC4COC4)C3)c3c(N)ncnn23)cnc1C#N` [Example 436, (R)-N-(1-(4-amino-7-(6-cyano-5-methylpyridin-3-yl)pyrrolo[2,1-f][1,2,4]triazin-5-yl)piperidin-3-yl)-5-(difluoromethyl)-3-(oxetan-3-yloxy)thiophene-2-carboxamide], the concentration for half-maximal inhibition (IC50) stood at 12 nM. Then `COC(=O)N(C)CCOc1cc(Cl)sc1C(=O)N[C@@H]1CCCN(c2cc(C3=CCN(C(C)=O)C3)n3ncnc(N)c23)C1` [Example 333], with 1 nM. Then `COC(=O)N1CC=C(c2cc(N3CCC[C@@H](NC(=O)c4sc(Cl)cc4OC4CCNC(C)C4)C3)c3c(N)ncnn23)C1` (stereo partly drawn) [Example 624, Methyl 3-(4-amino-5-((3R)-3-(5-chloro-3-((2-methylpiperidin-4-yl)oxy)thiophene-2-carboxamido)piperidin-1-yl)pyrrolo[2,1-f][1,2,4]triazin-7-y1)-2,5-dihydro-1H-pyrrole-1-carboxylate], with 7 nM. The value for `CC(=O)N1CC=C(c2cc(N3CCC[C@@H](NC(=O)c4cc(-c5ccccc5)ncn4)C3)c3c(N)ncnn23)C1` [Example 492, (R)-N-(1-(7-(1-acetyl-2,5-dihydro-1H-pyrrol-3-yl)-4-aminopyrrolo[2,1-f][1,2,4]triazin-5-yl)piperidin-3-yl)-6-phenylpyrimidine-4-carboxamide] was 53 nM; that for `CC(=O)N1CC=C(c2cc(N3CCC[C@@H](NC(=O)c4scnc4C)C3)c3c(N)ncnn23)C1` [Example 461, (R)-N-(1-(7-(1-acetyl-2,5-dihydro-1H-pyrrol-3-yl)-4-aminopyrrolo[2,1-f][1,2,4]triazin-5-yl)piperidin-3-yl)-4-methylthiazole-5-carboxamide] was 89 nM. Take `CC(=O)N1CC=C(c2cc(N3CCC[C@@H](NC(=O)c4sc5ccccc5c4OC4CCN(C(=O)OC(C)(C)C)CC4)C3)c3c(N)ncnn23)C1` [Example 653, tert-butyl (R)-4-((2-((1-(7-(1-acetyl-2,5-dihydro-1H-pyrrol-3-yl)-4-aminopyrrolo[2,1-f][1,2,4]triazin-5-yl)piperidin-3-yl)carbamoyl)benzo[b]thiophen-3-yl)oxy)piperidine-1-carboxylate]: the IC50 came out at 51 nM. The value for `CC(=O)N1CC=C(c2cc(N3CCC[C@@H](NC(=O)c4sc(Cl)cc4OCCNC(=O)C(F)F)C3)c3c(N)ncnn23)C1` [Example 329, (R)—N-(1-(7-(1-acetyl-2,5-dihydro-1H-pyrrol-3-yl)-4-aminopyrrolo[2,1-f][1,2,4]triazin-5-yl)piperidin-3-yl)-5-chloro-3-(2-(2,2-difluoroacetamido)ethoxy)thiophene-2-carboxamide] was 3 nM; that for `Nc1ncnn2c(-c3ccc(=O)n(C(F)F)c3)cc(N3CCC[C@@H](NC(=O)c4ccc(Cl)s4)C3)c12` [Example 537, (R)-N-(1-(4-amino-7-(1-(difluoromethyl)-6-oxo-1,6-dihydropyridin-3-yl)pyrrolo[2,1-f][1,2,4]triazin-5-yl)piperidin-3-yl)-5-chlorothiophene-2-carboxamide] was 2 nM.
